Assay results: article PMC4457528, “Identification of Novel Small Molecule Inhibitors of Oncogenic RET Kinase” (PLoS ONE, 2015)

Experiments:
[1] = test system: SHC and MAPK phosphorylation in parental RAT1 cells; assay: Western blot of SHC and MAPK phosphorylation in parental RAT1 cells; format: cell-based, rat; details: 2 hr
Protocol: (§1) Protein lysates were prepared according to standard procedures. Briefly, cells were lysed in a buffer containing 50 mM N-2-hydroxyethylpiperazine-N'-2-ethanesulfonic acid (HEPES; pH 7.5), 1% (vol/vol) Triton X-100, 150 mM NaCl, 5 mM EGTA, 50 mM NaF, 20 mM sodium pyrophosphate, 1 mM sodium vanadate, 2 mM phenylmethylsulphonyl fluoride (PMSF) and 1 μg/ml aprotinin. Lysates were clarified by centrifugation at 10,000 Xg for 15 min. […] Immune complexes were detected with the enhanced chemiluminescence kit (Amersham Pharmacia Biotech, Little Chalfort, UK). Signal intensity was analyzed at the Phosphorimager (Typhoon 8600, Amersham Pharmacia Biotech) interfaced with the ImageQuant software. Anti-phospho-SHC (#07206), that recognizes SHC proteins when phosphorylated on Y317 was from Merck Millipore (Darmstadt, Germany). Anti-MAPK (#4695) and anti-phospho-MAPK (#4370), specific for p44/42MAPK (ERK1/2) phosphorylated on Thr202/Tyr204, anti-VEGFRII (#2479) and anti-phospho-VEGFRII (#2478), that recognizes VEGF Receptor 2 when phosphorylated on Y1175, were from Cell Signaling (Beverly, MA).
(§2) Anti-SHC (#H-108) was from Santa Cruz Biotechnology (Santa Cruz, CA). Anti-RET is a polyclonal antibody raised against the tyrosine kinase protein fragment of human RET [28]. Anti-phospho905 is a phospho-specific polyclonal antibody recognizing RET proteins phosphorylated at Y905 and anti-phospho1062 is a phospho-specific polyclonal antibody recognizing RET proteins phosphorylated at Y1062 [13]. Secondary antibodies coupled to horseradish peroxidase were from Santa Cruz Biotechnology.
EC: extracellular domain; IC: intracellular domain; TM: transmembrane domain.

[2] = test system: SHC and MAPK phosphorylation in Nthy-ori-3-1 cells; assay: Western blot of SHC and MAPK phosphorylation in Nthy-ori-3-1 cells; format: cell-based, human; details: 10, 100 and 1,000 nM, 2 hr
Protocol: as §1, §2
We selected TT and MZ-CRC-1 cells, that derive from human MTC harbouring the RET/C634W or RET/M918T mutation, respectively, and TPC1 cells, that derive from human PTC bearing the RET/PTC1 (CCDC6-RET) rearrangement. […] Concentrations as low at 10 nM of all three drugs inhibited RET autophosphorylation as well as SHC and MAPK activation by 20–40% of control (Fig 4A–4C). […]

[3] = test system: TPC-1 cells; assay: Growth curves, TPC-1 papillary thyroid carcinoma cells (RET/PTC1); format: cell-based; details: Homo sapiens, TPC1; 2% serum; 95% CI in brackets; read-out: Growth inhibition IC50 dose TPC-1
Protocol: (§3) TT human cell line was obtained in 2002 from ATCC and authenticated by RET genotyping; it was derived from a MTC and harbors a cysteine 634 to tryptophan (C634W) RET mutation. TT cells were grown in RPMI 1640 supplemented with 20% fetal calf serum (GIBCO). MZ-CRC-1 human cells were kindly provided in 2009 by Robert F. Gagel (MD Anderson, Houston, TX) and authenticated by RET genotyping. […] Nthy-ori 3–1, a human thyroid follicular epithelial cell line immortalized by the SV40 large T gene, was obtained from European Collection of Cell Cultures (ECACC) (Wiltshire, UK) in 2010.
(§4) To compare cell growth, we performed unpaired Student’s t test using the Instat software program (Graphpad Software Inc). P values were two-sided, and differences were considered statistically significant at P <.02. IC50 doses were calculated through a curve fitting analysis from last day values using the PRISM software program (Graphpad Software Inc).

[4] = test system: RAT RET/C634R cells; format: cell-based; details: low serum, last day values, 95% CI in brackets, read-out: Growth inhibition IC50 dose: RAT RET/C634R
Protocol: as §4

[5] = target: RET/M918T (Homo sapiens, UniProt P07949, M918T); assay: cell-based; details: NIH3T3, read-out: inhibition of RET/M918T protein
Sequence of RET/M918T (P07949 29-1072 isoform P07949-2 M918T limits assumed): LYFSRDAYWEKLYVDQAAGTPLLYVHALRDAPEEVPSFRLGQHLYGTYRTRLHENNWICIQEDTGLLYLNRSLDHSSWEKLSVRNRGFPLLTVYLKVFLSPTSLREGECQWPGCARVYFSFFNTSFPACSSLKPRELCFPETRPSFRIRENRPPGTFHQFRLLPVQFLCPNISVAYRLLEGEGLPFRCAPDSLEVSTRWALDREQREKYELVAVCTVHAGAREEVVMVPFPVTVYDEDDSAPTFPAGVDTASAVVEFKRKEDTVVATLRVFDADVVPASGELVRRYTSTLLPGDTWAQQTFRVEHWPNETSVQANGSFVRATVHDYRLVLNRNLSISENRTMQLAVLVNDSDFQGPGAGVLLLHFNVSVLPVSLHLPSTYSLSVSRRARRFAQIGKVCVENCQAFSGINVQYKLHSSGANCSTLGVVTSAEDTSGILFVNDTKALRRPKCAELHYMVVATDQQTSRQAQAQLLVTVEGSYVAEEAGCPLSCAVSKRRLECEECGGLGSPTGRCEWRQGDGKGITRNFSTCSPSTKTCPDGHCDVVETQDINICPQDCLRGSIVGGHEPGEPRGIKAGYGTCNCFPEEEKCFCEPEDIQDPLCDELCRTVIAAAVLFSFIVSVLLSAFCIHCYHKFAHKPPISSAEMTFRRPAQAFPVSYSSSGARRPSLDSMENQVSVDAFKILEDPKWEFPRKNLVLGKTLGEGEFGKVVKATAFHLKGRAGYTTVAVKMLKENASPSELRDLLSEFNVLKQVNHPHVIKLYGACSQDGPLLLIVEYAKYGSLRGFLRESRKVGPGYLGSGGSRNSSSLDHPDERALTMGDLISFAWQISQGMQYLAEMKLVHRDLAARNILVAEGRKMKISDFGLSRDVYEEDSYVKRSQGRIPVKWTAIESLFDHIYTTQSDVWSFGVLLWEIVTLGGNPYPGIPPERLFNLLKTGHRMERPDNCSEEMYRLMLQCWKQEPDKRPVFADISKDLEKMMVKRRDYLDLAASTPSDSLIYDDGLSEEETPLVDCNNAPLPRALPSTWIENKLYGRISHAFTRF

[6] = target: T1, wt RET (Homo sapiens, UniProt P07949); assay: Invitrogen SelectScreen in vitro kinase assay, wt RET; format: biochemical; details: read-out: in vitro IC50 dose: RET
T1 construct: purchased Invitrogen (SelectScreen service)
T1 sequence (P07949 29-1114): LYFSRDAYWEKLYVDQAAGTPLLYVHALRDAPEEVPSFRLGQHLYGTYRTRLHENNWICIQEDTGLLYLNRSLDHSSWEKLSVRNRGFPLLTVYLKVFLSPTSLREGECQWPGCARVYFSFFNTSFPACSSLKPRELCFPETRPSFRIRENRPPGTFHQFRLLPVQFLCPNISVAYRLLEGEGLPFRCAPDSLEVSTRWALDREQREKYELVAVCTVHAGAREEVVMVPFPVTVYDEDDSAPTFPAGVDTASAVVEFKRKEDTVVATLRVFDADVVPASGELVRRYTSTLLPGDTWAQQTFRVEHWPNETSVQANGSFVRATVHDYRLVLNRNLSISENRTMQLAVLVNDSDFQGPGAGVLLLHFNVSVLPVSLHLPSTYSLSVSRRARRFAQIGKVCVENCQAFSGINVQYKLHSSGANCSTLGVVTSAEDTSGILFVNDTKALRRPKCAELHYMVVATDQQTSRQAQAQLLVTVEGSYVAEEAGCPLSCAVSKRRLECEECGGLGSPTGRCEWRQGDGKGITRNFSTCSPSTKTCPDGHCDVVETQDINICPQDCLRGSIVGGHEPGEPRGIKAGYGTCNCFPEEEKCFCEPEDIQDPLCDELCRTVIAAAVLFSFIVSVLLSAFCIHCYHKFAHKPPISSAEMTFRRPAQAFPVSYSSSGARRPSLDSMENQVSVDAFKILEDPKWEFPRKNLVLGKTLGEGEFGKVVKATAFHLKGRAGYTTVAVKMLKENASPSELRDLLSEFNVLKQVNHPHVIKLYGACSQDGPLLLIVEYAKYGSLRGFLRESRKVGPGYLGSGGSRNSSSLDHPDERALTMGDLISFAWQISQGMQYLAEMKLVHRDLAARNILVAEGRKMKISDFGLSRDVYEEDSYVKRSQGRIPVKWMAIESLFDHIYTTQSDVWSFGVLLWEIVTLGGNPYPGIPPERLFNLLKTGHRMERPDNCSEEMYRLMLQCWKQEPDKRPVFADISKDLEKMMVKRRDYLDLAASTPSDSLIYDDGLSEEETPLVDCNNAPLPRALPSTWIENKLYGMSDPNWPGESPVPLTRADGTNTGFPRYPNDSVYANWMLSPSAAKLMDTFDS
Description: Fig 2 ALW-II-41-27, HG-6-63-01 and XMD15-44 chemical structure. A) Chemical structure of the studied compounds: red colour indicates the “tail”, black colour indicates “linker”, and pink colour indicates the “head” part in the binding. B) Modelling of ALW-II-41-27 (left), XMD15-44 (middle) and HG-6-63-01(right) binding to the DFG-out conformation of RET.
Though more rarely than C634 and M918 mutations, other mutations targeting RET residues in the tyrosine kinase domain can cause familial or sporadic MTC [1, 2]. […] Of note, RET A883 residue is located in the VI Hanks domain adjacent to RET activation loop and it corresponds to G372 residue in ABL kinase whose mutation has been isolated in imatinib-resistant patients.

[7] = test system: TT cells; assay: Growth curves, TT medullary thyroid carcinoma cells (RET/C634W); format: cell-based; details: Homo sapiens, 20% serum, 95% CI in brackets, read-out: Growth inhibition IC50 dose TT
Protocol: as §3, §4

[8] = test system: RAT RET/M918T cells; assay: Growth curves, RAT1 cells transformed by RET/M918T; format: cell-based; details: low serum, last day values, 95% CI in brackets, read-out: Growth inhibition IC50 dose: RAT RET/M918T
Protocol: as §4

[9] = test system: RAT1 cells; assay: Growth curves, parental RAT1 cells; format: cell-based, rat; details: low serum
Protocol: as §4

| Structure (SMILES) | effect on SHC and MAPK phosphorylation in parental RAT1 cells [1] | effect on SHC and MAPK phosphorylation in Nthy-ori-3-1 cells [2] | IC50 [3] | IC50 [4] | inhibition at 0.01 µM [5] | IC50 [6] | IC50 [7] | IC50 [8] | Growth inhibition IC50 dose: RAT1 [9] |
| --- | --- | --- | --- | --- | --- | --- | --- | --- | --- |
| CCN1CCN(Cc2ccc(NC(=O)c3ccc(C)c(NC(=O)c4cncc(-c5cccs5)c4)c3)cc2C(F)(F)F)CC1 [ALW-II-41-27] | did not affect | did not exert any detectable effects | 19.7 nM | 44 nM | > 30% | 24.7 nM | 5.7 nM | 56 nM | Not measurable |
| CCN1CCN(Cc2ccc(NC(=O)c3ccc(C)c(C#Cc4cccnc4)c3)cc2C(F)(F)F)CC1 [XMD15-44] | did not affect | did not exert any detectable effects | 37.1 nM | 11.5 nM | > 30% | 14.2 nM | 1.5 nM | 8.3 nM | Not measurable |
| CCN1CCN(Cc2ccc(NC(=O)c3ccc(C)c(/C=C/c4cnc5[nH]ccc5c4Cl)c3)cc2C(F)(F)F)CC1 [HG-6-63-01, (E)-3-(2-(4-chloro-1H-pyrrolo[2,3-b]pyridin-5-yl)vinyl)-N-(4-((4-ethylpiperazin-1-yl)methyl)-3-(trifluoromethyl)phenyl)-4-methylbenzamide] | did not affect | did not exert any detectable effects | 9.8 nM | 21 nM | > 30% | 35.3 nM | 2.3 nM | 16 nM | Not measurable |
